Entries after “also recorded” stand apart in the source; their conditions may differ.

We go through 3 molecules from patent US20250057808A1, “COMPOSITION COMPRISING BETA LACTAM FOR TREATING ALCOHOL DEPENDENCE AND ALCOHOL ASSOCIATED DISEASES OR CONDITIONS” (Temple University of the Commonwealth System of Higher …, priority 2023, published 2025).

The test system of one data set is fat content in the liver. In words: Liver Oil Red O staining (fat content). The format is in vivo, P rats. As to conditions: MC-100093 50 mg/kg or ceftriaxone 200 mg/kg i.p. 5 days, control, ethanol, ethanol-CEF groups. The protocol:
To measure the fat content in the liver sections, we used Oil Red O (Sigma, CAS Number 1320-06-5) staining on 10 μm thick formalin-fixed liver sections and placed in slides for further staining. The slides were stained with freshly prepared Oil Red O working solution 15 minutes then rinsed with 60% isopropanol. Slides were then rinsed with distilled water and mounted in aqueous mounting media and prepared for imaging. The degree of Oil Red O staining was determined at 20× magnification using a color video camera attached to an Olympus VS120 slide scanning microscope. Olympus OlyVIA software was used to analyze the images. The lipid droplets were quantified using Image J pro (NIH). Data are presented as the mean+SEM of the Oil Red O staining for each group.
(§1) All statistical analyses were conducted with Graphpad Prism software, with p-values of 0.05 or less being statistically significant. We performed a two-way (mixed model) ANOVA followed by Bonferroni multiple comparison post-hoc test to analyze 24 h ethanol consumption, 24 h water consumption, and daily body weight. For the Western blot and oil red O staining analysis, we performed one-way ANOVA with Newman-Keuls as a post hoc multiple comparison test to measure differences between groups as a percentage (relative to control values).

The test system of data set [1] is GLT-1. Description: Western blot GLT-1 expression in NAc-core, NAc-shell and liver (50 mg/kg study). The format is in vivo, P rats. The conditions noted are these: MC-100093 50 mg/kg or ceftriaxone 200 mg/kg i.p. 5 days. The protocol:
(§2) We used micro-punch procedure to dissect the subregions of the NAc such as NAc-core and NAc-shell as well as the subregions of prefrontal cortex such as infralimbic (IL) and prelimbic (PL) from the brain on day 6 after the last injection day. P rats were removed from the cage and rapidly euthanized by CO2 inhalation followed by rapid decapitation with a guillotine. Brains were isolated and immediately frozen on dry ice and stored at −80° C. The stereotaxic coordinates provided by Paxinos and colleague's rat brain stereotactic atlas was used to isolate NAc-core and NAc-shell using a cryostat apparatus (−20° C.), which then kept at −80° C. for later western blot analyses.
(§3) Western Blot assay was performed to measure changes in the expression of GLT-1, xCT, mGluR1, mGluR5, PPAR-α, PPARγ, GAPDH and β-tubulin in the NAc-core and NAc-shell as described in previous publications. A lysis buffer containing protease and phosphatase inhibitors was used to generate a homogenate of liver, Nac-core, and Nac-shell samples. The amount of protein was quantified using a detergent compatible protein assay (Bio-Rad, Hercules, CA, USA) for each sample. Samples were mixed with laemmli dye and loaded with equal amounts on polyacrylamide gels (10%), which separated the proteins using electrophoresis. After that, polyvinylidene difluoride (PVDF) membranes were used to transfer the proteins electrophoretically from the gels. Membranes were incubated in 5% free-fat milk in Tris-buffered saline with Tween-20 (TBST) for 30-60 minutes at room temperature. Membranes were then incubated with appropriate primary antibodies overnight at 4° C.: rabbit anti-GLT-1 (1:5000, Abcam, ab41621), rabbit anti-xCT (1:2000, Abcam, ab175186), rabbit anti-mGluR1 (1:1000, Abcam, ab82211), rabbit anti-mGluR5 (1:1000, Abcam, ab76316), rabbit anti-PPAR-α (1:1000, Abcam, ab24509), and rabbit anti-PPARγ (1:1000, Abcam, ab209350). Mouse anti-β-tubulin (1:1000; BioLegend) was used as a loading control antibody for the brain samples and rabbit anti-GAPDH (1:5000; cell signaling) was used as a loading control antibody for the liver samples. Membranes were washed five times on the next day with TBST followed by incubation with appropriate secondary antibody (1:5000) for 90 minutes at room temperature. Chemiluminescent reagents (Super Signal West Pico, Pierce Inc.) were used to detect the proteins using a GeneSys imaging system to develop the digitized blot images. Water-control group data were represented as 100% and all other values were expressed relative to control group to detect changes in the expression of the protein of interest in the brain and liver samples.
as §1

For data set [2] the following is noted: earlier and literature studies in rats; cited from earlier work.
Data set [3] concerns GLT-1. As to conditions: earlier studies, chronic ethanol; cited from earlier work.
The test system of the next data set is PPAR-α. In words: Western blot PPAR-α expression in NAc-core, NAc-shell and liver. The format is in vivo, P rats. As to conditions: MC-100093 50 mg/kg or ceftriaxone 200 mg/kg i.p. 5 days; among all groups. The protocol: as §2, §3
(§4) All statistical analyses were conducted with Graphpad Prism software, with p-values of 0.05 or less being statistically significant. […]

The next data set concerns mGluR5. Description: Western blot mGluR5 expression in NAc-core and NAc-shell. It counts as in vivo, P rats. The conditions noted are these: MC-100093 50 mg/kg or ceftriaxone 200 mg/kg i.p. 5 days. The protocol: as §2, §3, §4
The test system of another data set is PPAR-γ. In words: Western blot PPAR-γ expression in liver. The format is in vivo, P rats. As to conditions: MC-100093 50 mg/kg or ceftriaxone 200 mg/kg i.p. 5 days; between all groups. The protocol: Western Blot assay was performed to measure changes in the expression of GLT-1, xCT, mGluR1, mGluR5, PPAR-α, PPARγ, GAPDH and β-tubulin in the NAc-core and NAc-shell as described in previous publications. A lysis buffer containing protease and phosphatase inhibitors was used to generate a homogenate of liver, Nac-core, and Nac-shell samples. The amount of protein was quantified using a detergent compatible protein assay (Bio-Rad, Hercules, CA, USA) for each sample. Samples were mixed with laemmli dye and loaded with equal amounts on polyacrylamide gels (10%), which separated the proteins using electrophoresis. After that, polyvinylidene difluoride (PVDF) membranes were used to transfer the proteins electrophoretically from the gels. Membranes were incubated in 5% free-fat milk in Tris-buffered saline with Tween-20 (TBST) for 30-60 minutes at room temperature. Membranes were then incubated with appropriate primary antibodies overnight at 4° C.: rabbit anti-GLT-1 (1:5000, Abcam, ab41621), rabbit anti-xCT (1:2000, Abcam, ab175186), rabbit anti-mGluR1 (1:1000, Abcam, ab82211), rabbit anti-mGluR5 (1:1000, Abcam, ab76316), rabbit anti-PPAR-α (1:1000, Abcam, ab24509), and rabbit anti-PPARγ (1:1000, Abcam, ab209350). […]

Data set [4] has as its system xCT. The conditions noted are these: earlier studies, chronic ethanol; cited from earlier work.
The next data set relates to mGluR1. Description: Western blot mGluR1 expression in NAc-core and NAc-shell. The format is in vivo, P rats. As to conditions: MC-100093 50 mg/kg or ceftriaxone 200 mg/kg i.p. 5 days; among all groups. As for the experimental part:
as §2, §3, §4

For data set [5], the system named is xCT. In words: Western blot xCT expression in NAc-core, NAc-shell and liver (50 mg/kg study). As to conditions: MC-100093 50 mg/kg or ceftriaxone 200 mg/kg i.p. 5 days. The format is in vivo, P rats. The protocol:
as §2, §3, §1

Data set [6] can be described thus: Ethanol drinking paradigm, three-bottle choice (MC-100093 50 mg/kg vs ceftriaxone 200 mg/kg). It counts as in vivo, P rats. The protocol:
P rats were received from Indiana University School of Medicine (Indianapolis, IN, USA), and were housed in a 21° C. on a 12/12 h light/dark cycle-maintained room where they had free access to water and food. All experimental procedures were approved by the Institutional Animal Care and Use Committee (IACUC) of The University of Toledo, in accordance with the guidelines governing the use of animals in research of the National Institutes of Health as described in the Guidefor the Care and Use of Laboratory Animals.
We used an ethanol drinking paradigm as described previously by Alhaddad, et al. (2014). Briefly, animals started the experimental drinking procedure at age of 90 days. The animals had five weeks of exposure to continuous three-bottle choice drinking, 0%, 15% and 30%, v/v ethanol in water, available concurrently. Daily measurement of ethanol intake was performed (g of ethanol intake/kg of body weight/day). We measured the baseline ethanol drinking by average the intake during the last three weeks. Three groups of P rats (n=8-9/group) exposed to the five weeks ethanol exposure. At week 6, rats in each group received daily intraperitoneal injection of either MC-100093 at dose of 50 mg/kg (Ethanol-MC group), Ceftriaxone at dose of 200 mg/kg (Ethanol-CEF group, which also serves as positive control), or equivolume of saline vehicle (Ethanol group) for five days. This paradigm results in pharmacologically relevant blood alcohol concentration (50-200 mg %). Following the criteria for the development of ethanol dependence, rats whose average ethanol intake <4 g/kg/day were excluded from the study. Beside the ethanol exposed groups, another group of P rats (n=8) exposed to only water and food throughout the exposure procedures (control group).
as §1

The mark [7] stands for this setting: ceftriaxone 200 mg/kg i.p. vs MC-100093 50 mg/kg i.p., days 2 through 5.

For `CO/N=C(\C(=O)N[C@@H]1C(=O)N2C(C(=O)O)=C(CSc3nc(=O)c(=O)[nH]n3C)CS[C@H]12)c1csc(N)n1` [Ceftriaxone, reference compound], the “Liver fat content (Oil Red O stained fat droplets)” value in the data set on fat content in the liver is “no significant difference in fat content between control, ethanol-MC, and ethanol-CEF groups; also recorded: significantly higher fat droplet content in ethanol group (p<0.05) compared to control, ethanol-MC or ethanol-CEF groups; also recorded: alleviated the liver steatosis”. The “Protein expression of GLT-1 in the liver” value in the data set on GLT-1 [1] is “normalized GLT-1 level; also recorded: normalize the PPAR-α and GLT-1 levels in the liver”. The “Protein expression of GLT-1 in the NAc-core” value in the data set with GLT-1 [1] (among Control, Ethanol, Ethanol-MC, Ethanol-CEF) is reported as “non-significant difference; also recorded: no significant difference”. Further, in the data set on GLT-1 [1] (vs Ethanol group), the “Protein expression of GLT-1 in the NAc-shell” value is “significantly increased”. Besides, in data set [2], the “Ethanol drinking behavior / consumption” value is “decreased ethanol consumption in rats; also recorded: attenuated ethanol drinking behaviors”. In addition, the “GLT-1 expression in the NAc” value in the data set with GLT-1 [3] was “attenuation of downregulation of GLT-1 as well as xCT expression; also recorded: upregulated GLT-1 and xCT expression in the NAc”. Besides, in the data set on PPAR-α, the “Protein expression of PPAR-α in the NAc-core” value is recorded as “non-significant differences; also recorded: did not detect significant changes” and the “Protein expression of PPAR-α in the NAc-shell” value is reported as “non-significant differences; also recorded: did not detect significant changes”. The “Protein expression of mGluR5 in the NAc-core” value with mGluR5 (among all groups) is listed as “non-significant difference; also recorded: no significant difference”. Moreover, the “Protein expression of mGluR5 in the NAc-shell” value in the data set on mGluR5 (vs control or ethanol groups) is “no significant change in the expression of mGluR5; also recorded: significantly downregulated in ethanol group compared to control, Ethanol-MC (50 mg/kg), and Ethanol-CEF (200 mg/kg) groups; also recorded: normalizing levels of mGluR5”. In addition, the “Protein expression of PPAR-γ in the liver” value in the data set with PPAR-γ is “not changed significantly”. In addition, in the data set with xCT [4], the “xCT expression in the NAc” value was “attenuation of downregulation of GLT-1 as well as xCT expression; also recorded: upregulated GLT-1 and xCT expression in the NAc”. In the data set with mGluR1, the “Protein expression of mGluR1 in the NAc-core” value is “non-significant difference; also recorded: no significant difference” and the “Protein expression of mGluR1 in the NAc-shell” value was “non-significant differences; also recorded: no significant difference”. In the data set on xCT [5] (among all groups), the “Protein expression of xCT in the NAc-core” value was “non-significant difference; also recorded: no significant difference”. Moreover, in the data set on xCT [5] (between all groups), the “Protein expression of xCT in the liver” value was “no significant differences”. The “Protein expression of xCT in the NAc-shell” value in the data set with xCT [5] (vs Ethanol group) is listed as “significantly higher level of xCT; also recorded: significantly increased xCT expression”. Moreover, the “Body weight (grams)” value in data set [6] (MC-100093 50 mg/kg i.p. or ceftriaxone 200 mg/kg i.p. 5 days) was “Neither MC-100093 (50 mg/kg, i.p.) nor Ceftriaxone (200 mg/kg, i.p.) treatment has significant effect; also recorded: no significant effects”. Moreover, in data set [6] (MC-100093 50 mg/kg i.p. or ceftriaxone 200 mg/kg i.p. 5 days, vs Ethanol-Saline group (MC-100093: at day 5 only)), the “Water intake (mL/day)” value is reported as “significant increase in water consumption from day 1 through day 5; also recorded: significant increase in water consumption from day 2 through day 5”. Moreover, the “Ethanol consumption (g/kg of average body weight/24 hr)” value in data set [6] (P rats after 5 wk ethanol, MC-100093 50 mg/kg i.p. or ceftriaxone 200 mg/kg i.p. daily 5 days, vs Ethanol-Saline group) is reported as “significant decrease in ethanol consumption from day 1 through day 5; also recorded: significantly reduced ethanol consumption from day 2 through day 5; also recorded: attenuated ethanol drinking behavior”. For the same molecule, in data set [6] (setting [7]), the “Ethanol consumption, Ethanol-Ceftriaxone compared to Ethanol-MC group” value is “significantly lower; also recorded: attenuate drinking behavior to a greater extent than MC-100093” and the “Water consumption, Ethanol-Ceftriaxone compared to Ethanol-MC group” value is on record as “significantly higher”.

Turning to `CC1CC=NN1C(=O)c1cccnc1` (centres unmarked) [MS-153], the “Ethanol drinking behavior / consumption” value in [2] is “attenuated ethanol drinking behaviors”. Also, the “GLT-1 expression in the NAc” value in the data set with GLT-1 [3] is “upregulated GLT-1 and xCT expression in the NAc”. Besides, in the data set with xCT [4], the “xCT expression in the NAc” value was “upregulated GLT-1 and xCT expression in the NAc”.

`Cc1ccc(C)c(OCCCC(C)(C)C(=O)O)c1` [Gemfibrozil]: the “Ethanol drinking behavior / consumption” value in [2] is “reduced ethanol drinking behavior in rats”.
